Results from patent US20080076747A1, “Fungicidal Mixtures” (BASF AKTIENGESELLSCHAFT, priority 2004, published 2008).

Key:
[1] = tested on: Pyrenophora teres; test: Activity against net blotch of barley caused by Pyrenophora teres, protective application; assay type: in vivo, Pyrenophora [syn. Drechslera] teres on barley; settings: barley seedlings, rated after 6 days
Procedure: (§1) The active compounds were separately or jointly prepared as a stock solution comprising 25 mg of active compound which was made up to 10 ml using a mixture of acetone and/or DMSO and the emulsifier Uniperol® EL (wetting agent having emulsifying and dispersing action based on ethoxylated alkylphenols) in a volume ratio of solvent/emulsifier of 99 to 1. The mixture was then made up with water to 100 ml. This stock solution was diluted with the solvent/emulsifier/water mixture described to the concentration of active compounds stated below.
(§2) The visually determined percentages of infected leaf areas were converted into efficacies in % of the untreated control:
The efficacy (E) is calculated as follows using Abbot's formula: E=(1−α/β)·100 α corresponds to the fungicidal infection of the treated plants in % and β corresponds to the fungicidal infection of the untreated (control) plants in %
An efficacy of 0 means that the infection level of the treated plants corresponds to that of the untreated control plants; an efficacy of 100 means that the treated plants were not infected.
Leaves of potted barley seedlings were sprayed to runoff point with an aqueous suspension having the concentration of active compound stated below. After 5 days, the test plants were inoculated with an aqueous spore suspension of Pyrenophora [syn. Drechslera] teres, the net blotch pathogen. The test plants were then placed in a greenhouse at temperatures between 20 and 24° C. and 95 to 100% relative atmospheric humidity. After 6 days, the extent of the disease development was determined visually in % infection of the entire leaf area.

[2] = tested on: Alternaria solani; test: Activity against early blight of tomato caused by Alternaria solani; assay type: in vivo, Alternaria solani on tomato; settings: 4 ppm; tomato cultivar Goldene Königin, sprayed 1 day before infection, rated after 5 days
Procedure: as §1, §2
The efficacy (E) is calculated as follows using Abbot's formula: E=(1−α/β)·100 α corresponds to the fungicidal infection of the treated plants in % and β corresponds to the fungicidal infection of the untreated (control) plants in % […]
Leaves of potted plants of the cultivar “Goldene Königin” were sprayed to runoff point with an aqueous suspension having the concentration of active compound stated below. […] After 5 days, the disease on the untreated but infected control plants had developed to such an extent that the infection could be determined visually in %.

[3] = tested on: Botrytis cinerea; test: Activity against the gray mold pathogen Botrytis cinerea in the microtiter test; assay type: cell-based; settings: 1 ppm; microtiter plate, 405 nm, day 7 after inoculation
From the text: For the microtiter tests, the active compounds were formulated separately as a stock solution having a concentration of 10 000 ppm in DMSO.
In the microtiter tests, the measured parameters were offset with the growth of the active-compound-free control variant and the fungus- and active-compound-free blank value, in order to determine the relative growth in % of the pathogens in the individual active compounds.
The stock solutions were mixed according to the ratio, pipetted into a microtiter plate (MTP) and diluted to the stated active compound concentration using a malt-based aqueous nutrient medium for fungi. An aqueous spore suspension of Botrytis cinerea was then added. The plates were placed in a water vapor-saturated chamber at temperatures of 18° C. Using an absorption photometer, the MTPs were measured at 405 nm on day 7 after the inoculation.

Compound	Observed activity (%) ([1]; 63 ppm, sprayed 5 days before inoculation)	Observed activity (%) [2] [%]	Observed activity (%) [3] [%]	Observed activity (%) ([1]; 16 ppm, protective)	Observed activity (%) ([1]; 250 ppm, protective)
CO/C=C(/C(=O)OC)c1ccccc1CO/N=C(C)/C=C/c1ccc(Cl)cc1 [enestroburin (I), methyl 2-{2-[3-(4-chlorophenyl)-1-methylallylideneaminooxymethyl]phenyl}-3-methoxyacrylate]	56	22	12	–	–
Cc1ccc(C(C)NC(=O)[C@@H](NC(=O)OC(C)C)C(C)C)cc1 (stereo partly drawn) [iprovalicarb (II-11), isopropyl [(1S)-2-methyl-1-(1-p-tolylethylcarbamoyl)propyl]carbamate]	–	0	–	–	–
manganese ethylenebis(dithiocarbamate) (polymer) complex zinc salt [mancozeb (II-1)]	–	–	–	0	22
zinc ammoniate ethylenebis(dithiocarbamate) [metiram (II-4)]	–	–	7	–	–
